# From paper PMC4978154, “Phase I metabolites of mephedrone display biological activity as substrates at monoamine transporters” (British Journal of Pharmacology, 2016)
# Assays:
# [1] = molecular target: T1, hNET (Homo sapiens, UniProt P23975); experiment: Transporter release (superfusion) assay in HEK293 cells expressing hNET; assay type: cell-based; conditions: test drug 10 μM, monensin 10 μM; post hoc Bonferroni
# T1 construct: expressed in transfected cells
# Procedure: (§1) The generation of HEK293 cells stably expressing the human isoforms of DAT (hDAT) and NET (hNET) was carried out as described previously (Scholze et al., 2002). For SERT, the human isoform (hSERT) was cloned in frame with yellow fluorescent protein (Schmid et al., 2001). The generation of a stable cell line was performed as described by Hilber and colleagues (Hilber et al., 2005). HEK293 cells were maintained in humidified atmosphere (5% CO2, 37°C) in DMEM, supplemented with 10% heat‐inactivated FBS and penicillin (100 u 100 mL^−1) and streptomycin (100 μg 100 mL^−1). Selection pressure was maintained by adding geneticin (50 μg·mL^−1) to the cell culture media.
# Superfusion experiments were performed as described previously (Scholze et al., 2002). Briefly, HEK293 cells expressing the desired transporter were seeded at a density of 40 000 cells per well onto poly‐D‐lysine‐coated 5 mm glass cover slips in 96‐well plates 24 h prior to the experiment. Cells were preloaded with [^3H]‐MPP^+ (0.1 μM, hDAT and hNET) or [^3H]‐5‐HT (0.4 μM, hSERT) for 20 min at 37°C in a final volume of 100 μL per well. Subsequently, glass coverslips were transferred into small superfusion chambers (volume of 200 μL) and superfused with KHB at 25°C with a superfusion rate of 0.7 mL·min^−1 for 40 min to establish a stable basal efflux. After washout, the collection of 2‐min fractions was initiated. After the first three basal fractions, monensin (10 μM) or solvent was added for four fractions. […] Finally, the cells were lysed in 1% SDS to determine the total radioactivity. Radioactivity per fraction was assessed by a liquid scintillation counter and expressed as fractional release, that is, the percentage of released ^3H in relation to total ^3H present at the beginning of the fraction (Sitte et al., 2000). For analysis, release was expressed as AUC.
# Calculations were performed using Microsoft Excel® 2010 (Microsoft Corporation, Redmond, WA, USA) and GRAPHPAD PRISM 5.0. […] IC50 values for uptake inhibition and EC50 values for release were determined by nonlinear regression fits. Release data expressed as AUC were analysed by one‐way ANOVA followed by Bonferroni's multiple comparison test. Microdialysis and locomotor data were analysed by two‐way ANOVA (drug treatment × time) followed by Bonferroni's test. The effect of monensin treatment on basal efflux of tritiated substrate was analysed with the Mann–Whitney test. […]
# Data from uptake inhibition assays cannot distinguish whether test drugs act as non‐transported inhibitors or transportable substrates, which evoke release (Scholze et al., 2000; Sitte et al., 2000; Baumann et al., 2013). […] As described previously, efflux of preloaded [^3H]‐MPP^+ or [^3H]‐5‐HT was monitored in the presence or absence of monensin (10 μM) (Scholze et al., 2000). […]
# [2] = system: extracellular 5-HT in rat nucleus accumbens; experiment: Microdialysis in rat nucleus accumbens, dialysate 5-HT; assay type: in vivo; conditions: for increase of dialysate 5-HT above baseline: rat nucleus accumbens
# Procedure: In vivo microdialysis procedures were carried out as previously described with minor modifications (Baumann et al., 2012). Briefly, male rats anaesthetized with sodium pentobarbital (60 mg·kg^−1, i.p.) received surgically implanted jugular catheters, and intracerebral guide cannulae aimed at the nucleus accumbens (AP +1.6 mm, ML −1.7 mm relative to bregma; −6.2 mm relative to dura) (Paxinos and Watson, 2007). After a 7–10 day recovery, each rat was placed into a chamber equipped with photobeams for the detection of motor parameters (TruScan, Harvard Apparatus, Holliston, MA, USA) and allowed to acclimatize overnight. Food and water were available ad libitum during the acclimatization period. On the following morning, catheters were attached to PE 50 extension tubes, and 0.5 × 2 mm microdialysis probes (CMA/12, Harvard Apparatus, Holliston, MA, USA) were inserted into the guide cannulae. Ringers' solution (150 mM NaCl, 2.8 mM KCl and 2.0 mM CaCl2) was perfused through the probes at 0.6 μL·min^−1 for 3 h. To commence experiments, dialysate samples ([…]) were collected at 20 min intervals, and drug or saline treatments were given after three baseline samples were obtained. Rats received two sequential i.v. injections of mephedrone or its metabolites, with 1 mg·kg^−1 administered at time zero, followed by 3 mg·kg^−1 60 min later. Saline was administered using the same schedule in a separate group of rats. Dialysate concentrations of dopamine and 5‐HT were quantified using HPLC coupled to electrochemical detection (Baumann et al., 2012). Chromatographic data were exported to an Empower software system (Waters, Inc., Milford, MA, USA) for peak identification, integration and analysis.
# Correct probe placements were assessed after the microdialysis experiments. Rats were killed by CO2 narcosis then decapitated. Brains were quickly removed and immersion fixed in 10% paraformaldehyde for 1 week. Subsequently, brains were sectioned on a cryostat, and the location of each probe tip was verified by inspection of photographic images of the brain taken with a digital camera using the macro lens setting.
# Calculations were performed using Microsoft Excel® 2010 (Microsoft Corporation, Redmond, WA, USA) and GRAPHPAD PRISM 5.0. (GraphPad Software Inc., La Jolla, CA, USA). IC50 values for uptake inhibition and EC50 values for release were determined by nonlinear regression fits. Release data expressed as AUC were analysed by one‐way ANOVA followed by Bonferroni's multiple comparison test. Microdialysis and locomotor data were analysed by two‐way ANOVA (drug treatment × time) followed by Bonferroni's test. The effect of monensin treatment on basal efflux of tritiated substrate was analysed with the Mann–Whitney test. P values less than 0.05 (i.e. P < 0.05) were considered significant. The data and statistical analysis comply with the recommendations on experimental design and analysis in pharmacology (Curtis et al., 2015).
# [3] = molecular target: T2, hSERT (Homo sapiens, UniProt P31645); experiment: Transporter release (superfusion) assay in HEK293 cells expressing hSERT; assay type: cell-based; conditions: test drug 10 μM, monensin 10 μM; post hoc Bonferroni
# T2 construct: yellow fluorescent protein (YFP); expressed in transfected cells
# Procedure: as §1
# Superfusion experiments were performed as described previously (Scholze et al., 2002). […] Finally, the cells were lysed in 1% SDS to determine the total radioactivity. Radioactivity per fraction was assessed by a liquid scintillation counter and expressed as fractional release, that is, the percentage of released ^3H in relation to total ^3H present at the beginning of the fraction (Sitte et al., 2000). For analysis, release was expressed as AUC.
# Calculations were performed using Microsoft Excel® 2010 (Microsoft Corporation, Redmond, WA, USA) and GRAPHPAD PRISM 5.0. […] IC50 values for uptake inhibition and EC50 values for release were determined by nonlinear regression fits. […]
# [4] = forensic traffic case, ref Pedersen et al., 2013, cited from earlier work; for blood concentration, first case: parent drug:metabolite 28:2; for blood concentration, second case: parent drug:metabolite 29:9
# [5] = 3 mg·kg−1 i.v. (60 min after 1 mg·kg−1)
# T1 sequence (P23975 whole entry, the tested form may be a part): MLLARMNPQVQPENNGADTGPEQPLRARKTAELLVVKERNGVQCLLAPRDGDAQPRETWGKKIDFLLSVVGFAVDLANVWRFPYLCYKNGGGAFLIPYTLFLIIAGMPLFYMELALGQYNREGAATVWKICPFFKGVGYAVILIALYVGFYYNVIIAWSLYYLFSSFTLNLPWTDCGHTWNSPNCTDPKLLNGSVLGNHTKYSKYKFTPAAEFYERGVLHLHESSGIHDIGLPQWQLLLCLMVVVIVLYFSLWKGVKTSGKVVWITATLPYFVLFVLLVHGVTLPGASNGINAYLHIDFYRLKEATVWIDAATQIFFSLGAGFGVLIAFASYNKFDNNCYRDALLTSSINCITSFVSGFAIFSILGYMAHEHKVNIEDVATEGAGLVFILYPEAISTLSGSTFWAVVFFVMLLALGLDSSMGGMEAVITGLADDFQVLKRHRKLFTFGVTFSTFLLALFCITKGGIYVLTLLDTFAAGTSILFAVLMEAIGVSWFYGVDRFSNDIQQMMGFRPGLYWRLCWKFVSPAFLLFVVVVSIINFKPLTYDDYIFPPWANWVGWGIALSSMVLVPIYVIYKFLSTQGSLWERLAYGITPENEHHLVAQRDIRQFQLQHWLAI
# T2 sequence (P31645 whole entry, the tested form may be a part): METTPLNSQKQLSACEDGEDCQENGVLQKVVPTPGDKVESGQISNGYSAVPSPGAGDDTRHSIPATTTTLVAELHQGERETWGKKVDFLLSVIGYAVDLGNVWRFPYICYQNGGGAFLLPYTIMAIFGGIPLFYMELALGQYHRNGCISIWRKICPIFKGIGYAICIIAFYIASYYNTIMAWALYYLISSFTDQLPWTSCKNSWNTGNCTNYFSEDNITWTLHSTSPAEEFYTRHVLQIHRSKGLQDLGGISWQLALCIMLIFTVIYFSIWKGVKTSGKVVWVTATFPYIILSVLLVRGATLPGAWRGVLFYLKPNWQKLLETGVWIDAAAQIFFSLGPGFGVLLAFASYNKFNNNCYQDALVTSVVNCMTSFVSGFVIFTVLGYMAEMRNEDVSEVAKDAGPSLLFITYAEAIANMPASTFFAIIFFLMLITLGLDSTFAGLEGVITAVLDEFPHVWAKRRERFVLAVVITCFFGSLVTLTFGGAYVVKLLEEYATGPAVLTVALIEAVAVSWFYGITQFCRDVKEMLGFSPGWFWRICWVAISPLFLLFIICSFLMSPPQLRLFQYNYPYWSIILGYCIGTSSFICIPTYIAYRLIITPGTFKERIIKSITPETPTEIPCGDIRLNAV
Compound,enhancement by monensin of drug-evoked [3H]-MPP+ release at hNET (AUC) [1],increase of dialysate 5-HT above baseline ([2]; 1 mg·kg−1 i.v.),"increase of dialysate 5-HT above baseline [2, 5]",enhancement by monensin of drug-evoked [3H]-5-HT release at hSERT (AUC) [3],"blood concentration, first case [4]","blood concentration, second case [4]","effect on extracellular neurotransmitters in the brain (5-HT) ([2]; systemic administration, 1 and 3 mg·kg−1 i.v., rat)"
"CNC(C)C(=O)c1ccc(C)cc1.Cl (stereo not shown) [Mephedrone, 2‐Methylamino‐1‐(p‐tolyl)propan‐1‐one hydrochloride]",significant,15 fold,25 fold,significant,28 µg/kg,29 µg/kg,
"CNC(C)C(=O)c1ccc(CO)cc1.Cl (stereo not shown) [4‐OH‐mephedrone, 1‐(4‐(hydroxymethyl)phenyl)‐2‐(methylamino)propan‐1‐one hydrochloride]",significant,,,,2 µg/kg,9 µg/kg,no significant effect
"Cc1ccc(C(=O)C(C)N)cc1.Cl (stereo not shown) [Nor‐mephedrone, 2‐amino‐1‐(p‐tolyl)propan‐1‐one hydrochloride]",significant,15 fold,25 fold,,,,
